One assay addresses MLLT3 (Homo sapiens, UniProt P42568). Briefly: HTRF IC50 determination assay, MLLT3 / H3K9cro peptide displacement. Conditions: MLLT3 assay IC50 (nM), 6His tagged MLLT3, biotinylated H3K9cro peptide, compound 20 μM to 20 nM, 11 data points in duplicate.
The target in another assay is MLLT1 (Homo sapiens, UniProt Q03111). In words: biochemical. Conditions: MLLT1 assay IC50 (nM), HTRF, 6His tagged MLLT1, biotinylated H3K9cro peptide; compound 20 μM to 20 nM, 11 data points in duplicate.
Sequence of MLLT1 (Q03111 whole entry): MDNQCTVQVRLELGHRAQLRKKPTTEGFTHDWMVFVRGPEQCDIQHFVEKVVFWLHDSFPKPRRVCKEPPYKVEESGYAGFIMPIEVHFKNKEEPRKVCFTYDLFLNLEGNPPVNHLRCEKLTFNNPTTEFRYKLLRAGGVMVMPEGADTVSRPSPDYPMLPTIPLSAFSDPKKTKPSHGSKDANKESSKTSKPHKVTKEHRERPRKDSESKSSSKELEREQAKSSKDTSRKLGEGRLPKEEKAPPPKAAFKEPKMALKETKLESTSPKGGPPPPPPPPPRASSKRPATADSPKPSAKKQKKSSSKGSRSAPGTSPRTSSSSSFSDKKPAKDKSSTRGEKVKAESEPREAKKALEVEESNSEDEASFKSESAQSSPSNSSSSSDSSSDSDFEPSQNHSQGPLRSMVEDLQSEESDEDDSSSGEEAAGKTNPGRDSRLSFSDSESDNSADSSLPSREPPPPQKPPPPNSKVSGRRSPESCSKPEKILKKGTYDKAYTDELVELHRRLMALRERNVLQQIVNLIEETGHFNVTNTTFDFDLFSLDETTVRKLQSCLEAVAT

Sequence of MLLT3 (P42568 whole entry): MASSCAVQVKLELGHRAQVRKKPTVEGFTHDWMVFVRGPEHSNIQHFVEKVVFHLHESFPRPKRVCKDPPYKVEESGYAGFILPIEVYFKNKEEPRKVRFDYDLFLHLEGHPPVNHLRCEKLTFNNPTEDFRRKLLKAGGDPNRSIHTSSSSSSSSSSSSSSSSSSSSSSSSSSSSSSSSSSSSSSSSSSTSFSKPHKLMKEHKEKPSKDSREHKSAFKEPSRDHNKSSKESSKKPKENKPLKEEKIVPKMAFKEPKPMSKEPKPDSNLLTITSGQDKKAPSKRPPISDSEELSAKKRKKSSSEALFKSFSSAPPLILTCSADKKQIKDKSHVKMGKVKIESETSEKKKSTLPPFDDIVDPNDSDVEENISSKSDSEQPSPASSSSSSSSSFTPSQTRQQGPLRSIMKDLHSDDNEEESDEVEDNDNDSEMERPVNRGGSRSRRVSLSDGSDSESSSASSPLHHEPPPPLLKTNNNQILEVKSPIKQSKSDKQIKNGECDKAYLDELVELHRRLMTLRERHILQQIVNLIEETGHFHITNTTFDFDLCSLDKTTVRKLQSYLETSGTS

Take `CN1CCCC1c1cn2cc(NC(=O)c3cc(-c4cnccn4)ccc3F)ccc2n1` (single isomer, unassigned) [Example 24]: the IC50 on MLLT3 is 1500 to 20000 nM; against MLLT1, 150 to 1500 nM.
Consider `Cc1ncc(-c2ccc(C(=O)Nc3ccc4nc(C5CCCN5C)cn4c3)c(F)c2)s1` (single isomer, unassigned) [Example 25], for which the IC50 on MLLT3 and against MLLT1 was 150 to 1500 nM each time.
Take `CN1CCCC1c1cn2cc(NC(=O)c3cc4ccncc4cc3F)ccc2n1` (single isomer, unassigned) [Example 26]: the IC50 at MLLT3 and against MLLT1 was 150 to 1500 nM in each case.
Consider `CN1CCCCC1c1cn2cc(NC(=O)c3ccc4c(cnn4C)c3)ccc2n1` (single isomer, unassigned) [Example 27], for which the values for the half-inhibitory concentration (IC50) on MLLT3 and against MLLT1 were over 20000 nM and 1500 to 20000 nM, respectively.
In the same order, the values of `CN1CCCCC1c1cn2cc(NC(=O)c3ccc4c(cnn4C)c3)ccc2n1` (single isomer, unassigned) [Example 28] are 150 to 1500 nM and 150 to 1500 nM.
Regarding `CN1CCCC1c1cn2cc(NC(=O)c3ccc4c(cnn4C)c3)ccc2n1` (single isomer, unassigned) [Example 59], the IC50 on MLLT3 and against MLLT1 was 1500 to 20000 nM throughout.
In the case of `CN1CCCC1c1cn2cc(NC(=O)c3ccc4c(cnn4C)c3)ccc2n1` (single isomer, unassigned) [Example 60], the figures for the IC50 on MLLT3 and against MLLT1 were 150 to 1500 nM and under 150 nM, respectively.
On to `Cc1nn(C)c2cc(C(=O)Nc3cn4cc(C5CN(C)CCN5C)nc4cn3)ccc12` (single isomer, unassigned) [Example 67], for which the IC50 at MLLT3 and at MLLT1 was 150 to 1500 nM each time.
In the case of `Cc1nn(C)c2cc(C(=O)Nc3cn4cc([C@@H]5CCCN5C)nc4cn3)ccc12` (single isomer, unassigned) [Example 69], the concentration for half-maximal inhibition (IC50) on MLLT3 and on MLLT1 was 1500 to 20000 nM in each case.
`Cc1nn(C)c2cc(C(=O)Nc3cn4cc(C5CC(C)(C)CN5C)nc4cn3)ccc12` (single isomer, unassigned) [Example 81]: the IC50 on MLLT3 and against MLLT1 was 1500 to 20000 nM throughout.
`Cc1nn(C)c2cc(C(=O)Nc3cn4cc(C5CC(C)(C)CN5C)nc4cn3)ccc12` (single isomer, unassigned) [Example 82]: the half-maximal inhibitory concentration (IC50) at MLLT3 and on MLLT1 was under 150 nM in each case.
In the case of `CCN1CCCC1c1cn2cc(NC(=O)c3ccc4c(C)nn(C)c4c3)ncc2n1` (single isomer, unassigned) [Example 87, N-{2-[(rel-2R)-1-ethylpyrrolidin-2-yl]imidazo[1,2-a]pyrazin-6-yl}-1,3-dimethylindazole-6-carboxamide], the half-maximal inhibitory concentration (IC50) at MLLT3 and against MLLT1 was 150 to 1500 nM each time.
For the molecule `CCN1CCCC1c1cn2cc(NC(=O)c3ccc4c(C)nn(C)c4c3)ncc2n1` (single isomer, unassigned) [Example 88, N-{2-[(rel-2S)-1-ethylpyrrolidin-2-yl]imidazo[1,2-a]pyrazin-6-yl}-1,3-dimethylindazole-6-carboxamide], the IC50 on MLLT3 and against MLLT1 was 1500 to 20000 nM throughout.
Regarding `CN1CCCC1c1cn2cc(NC(=O)c3ccc4scnc4c3)ccc2n1` (stereo not drawn) [Example 41], the IC50 on MLLT3 and against MLLT1 was 150 to 1500 nM in each case.
`CN1C2CCCCC2C[C@@H]1c1cn2cc(NC(=O)c3ccc4c(cnn4C)c3)ccc2n1` (stereo partly drawn) [Example 58, 1-methyl-N-{2-[(2R)-1-methyl-octahydro-1H-indol-2-yl]imidazo[1,2-a]pyridin-6-yl}-1H-indazole-5-carboxamide]: the half-maximal inhibitory concentration (IC50) at MLLT3 and on MLLT1 was 150 to 1500 nM each time.
`Cc1nn(C)c2cc(C(=O)Nc3cn4cc([C@H]5CCCN5C)nc4cn3)ccc12` [Example 70, 1,3-dimethyl-N-{2-[(2R)-1-methylpyrrolidin-2-yl]imidazo[1,2-a]pyrazin-6-yl}-1H-indazole-6-carboxamide]: the IC50 at MLLT3 and at MLLT1 was 150 to 1500 nM throughout.
For `CN1CCC[C@@H]1c1cn2cc(NC(=O)c3ccc4c(C5CC5)nn(C)c4c3)ncc2n1` [Example 71, 3-cyclopropyl-1-methyl-N-{2-[(2R)-1-methylpyrrolidin-2-yl]imidazo[1,2-a]pyrazin-6-yl}-1H-indazole-6-carboxamide], the IC50 at MLLT3 and against MLLT1 was 150 to 1500 nM in each case.
On to `CCc1nn(C)c2cc(C(=O)Nc3cn4cc([C@H]5CCCN5C)nc4cn3)ccc12` [Example 72, 3-ethyl-1-methyl-N-{2-[(2R)-1-methylpyrrolidin-2-yl]imidazo[1,2-a]pyrazin-6-yl}-1H-indazole-6-carboxamide], for which the IC50 on MLLT3 and on MLLT1 was 150 to 1500 nM throughout.
Turning to `Cc1nn(C)c2cc(C(=O)Nc3cn4cc([C@H]5CCCN5C)nc4cn3)c(F)cc12` [Example 73, 5-fluoro-1,3-dimethyl-N-{2-[(2R)-1-methylpyrrolidin-2-yl]imidazo[1,2-a]pyrazin-6-yl}-1H-indazole-6-carboxamide], the IC50 on MLLT3 and at MLLT1 was 150 to 1500 nM throughout.
For `Cc1nn(C)c2cc(C(=O)Nc3cn4cc([C@H]5CCCN5)nc4cn3)ccc12` [Example 76, 1,3-dimethyl-N-[2-[(2R)-pyrrolidin-2-yl]imidazo[1,2-a]pyrazin-6-yl]indazole-6-carboxamide], the IC50 at MLLT3 lay in the range of 1500 to 20000 nM; at MLLT1 it was 150 to 1500 nM.
For the molecule `CN1C[C@@H](F)C[C@@H]1c1cn2cc(NC(=O)c3ccc4c(cnn4C)c3)ncc2n1` [Example 83, N-{2-[(2R,4S)-4-fluoro-1-methylpyrrolidin-2-yl]imidazo[1,2-a]pyrazin-6-yl}-1-methylindazole-5-carboxamide], the IC50 at MLLT3 and against MLLT1 was 150 to 1500 nM each time.
For the molecule `Cc1nc(NC(=O)c2cc3cnn(C)c3cc2F)cn2cc([C@H]3CCCN3C)nc12` [Example 91, 6-fluoro-1-methyl-N-{8-methyl-2-[(2R)-1-methylpyrrolidin-2-yl]imidazo[1,2-a]pyrazin-6-yl}indazole-5-carboxamide], the IC50 at MLLT3 was 150 to 1500 nM; on MLLT1 it was under 150 nM.
Take `Cc1nc(NC(=O)c2cc3cnn(C)c3cc2Cl)cn2cc([C@H]3CCCN3C)nc12` [Example 92, (R)-6-chloro-1-methyl-N-(8-methyl-2-(1-methylpyrrolidin-2-yl)imidazo[1,2-a]pyrazin-6-yl)-1H-indazole-5-carboxamide]: the half-inhibitory concentration (IC50) at MLLT3 and on MLLT1 was 1500 to 20000 nM each time.
On to `Cc1nc(NC(=O)c2cc3cnc(C)n3cc2F)cn2cc([C@H]3CCCN3C)nc12` [Example 93, 6-fluoro-3-methyl-N-{8-methyl-2-[(2R)-1-methylpyrrolidin-2-yl]imidazo[1,2-a]pyrazin-6-yl}imidazo[1,5-a]pyridine-7-carboxamide], for which the IC50 at MLLT3 and against MLLT1 was 150 to 1500 nM in each case.
In the case of `Cc1nc(NC(=O)c2cc3c(C)nc(C)n3cc2F)cn2cc([C@H]3CCCN3C)nc12` [Example 94, 6-fluoro-1,3-dimethyl-N-{8-methyl-2-[(2R)-1-methylpyrrolidin-2-yl]imidazo[1,2-a]pyrazin-6-yl}imidazo[1,5-a]pyridine-7-carboxamide], the IC50 at MLLT3 and on MLLT1 was 150 to 1500 nM in each case.
For `CN1CCC[C@@H]1c1cn2cc(NC(=O)c3cc4cnn(C)c4cn3)ncc2n1` [Example 95, 1-methyl-N-{2-[(2R)-1-methylpyrrolidin-2-yl]imidazo[1,2-a]pyrazin-6-yl}pyrazolo[3,4-c]pyridine-5-carboxamide], the IC50 on MLLT3 and against MLLT1 was 1500 to 20000 nM in each case.
Regarding `COc1cc2c(cnn2C)cc1C(=O)Nc1cn2cc([C@H]3CCCN3C)nc2cn1` [Example 96, 6-methoxy-1-methyl-N-{2-[(2R)-1-methylpyrrolidin-2-yl]imidazo[1,2-a]pyrazin-6-yl}indazole-5-carboxamide], the results for the IC50 on MLLT3 and at MLLT1 were 1500 to 20000 nM and 150 to 1500 nM, respectively.
Consider `CN1CCC[C@@H]1c1cn2cc(NC(=O)c3ccc4nnn(C)c4c3)ncc2n1` [Example 97, 3-methyl-N-{2-[(2R)-1-methylpyrrolidin-2-yl]imidazo[1,2-a]pyrazin-6-yl}-1,2,3-benzotriazole-5-carboxamide], for which the half-inhibitory concentration (IC50) at MLLT3 and against MLLT1 was 150 to 1500 nM in each case.
For `CN1CCC[C@@H]1c1cn2cc(NC(=O)c3ccc4c(N5CCCCC5)nn(C)c4c3)ncc2n1` [Example 98, 1-methyl-N-{2-[(2R)-1-methylpyrrolidin-2-yl]imidazo[1,2-a]pyrazin-6-yl}-3-(piperidin-1-yl)indazole-6-carboxamide], the IC50 at MLLT3 and against MLLT1 was 150 to 1500 nM throughout.
On to `CN1CCC[C@@H]1c1cn2cc(NC(=O)c3ccc4c(cnn4C)c3)nc(C3CC3)c2n1` [Example 99, N-[8-cyclopropyl-2-[(2R)-1-methylpyrrolidin-2-yl]imidazo[1,2-a]pyrazin-6-yl]-1-methyl-indazole-5-carboxamide], for which the IC50 on MLLT3 was in the range of 1500 to 20000 nM; on MLLT1, 150 to 1500 nM.
As for `Cc1nn(C)c2cc(C(=O)Nc3cn4cc([C@H]5CCCN5C)nc4c(C4CC4)n3)c(F)cc12` [Example 100, N-[8-cyclopropyl-2-[(2R)-1-methylpyrrolidin-2-yl]imidazo[1,2-a]pyrazin-6-yl]-5-fluoro-1,3-dimethyl-indazole-6-carboxamide], the IC50 at MLLT3 and on MLLT1 was 150 to 1500 nM each time.
Turning to `CN1CCC[C@@H]1c1cn2cc(NC(=O)c3cc4cnn(C)c4cc3F)ncc2n1` [Example 101, 6-fluoro-1-methyl-N-[2-[(2R)-1-methylpyrrolidin-2-yl]imidazo[1,2-a]pyrazin-6-yl]indazole-5-carboxamide], the IC50 on MLLT3 was 150 to 1500 nM; on MLLT1 it was under 150 nM.
As to `CN1CC2(CC2)C[C@@H]1c1cn2cc(NC(=O)c3ccc4c(cnn4C)c3)ncc2n1` [Example 102, 1-methyl-N-[2-[(6R)-5-methyl-5-azaspiro[2.4]heptan-6-yl]imidazo[1,2-a]pyrazin-6-yl]indazole-5-carboxamide], the IC50 is 150 to 1500 nM at MLLT3 and under 150 nM on MLLT1.

The values above are taken from patent US20260216196A1, “IMIDAZO[1,2-A]PYRIDINE AND IMIDAZO[1,2-A]PYRAZINE DERIVATIVES AS MLLT1 AND MLLT3 INHIBITORS” (DARK BLUE THERAPEUTICS LTD., priority 2022, published 2026).
